Reference: patent US9676782B2, “Substituted pyrazolo[1,5-a]pyrazines as negative allosteric modulators of metabotropic glutamate receptor 3” (Vanderbilt University, priority 2014, dated 2017)
Like-named read-outs stand apart in the source and are kept apart here. Each block holds one molecule with its values, some of them ahead of it.

Columns and labels:
[1] = molecular target: rat mGlu5 (Rattus norvegicus (Rat), UniProt P31424); assay: mGlu5 Ca2+ flux assay; assay type: cell-based; conditions: for Fold selectivity (mGlu3 vs. mGlu5): ratio of rat mGlu5 EC50 or IC50 to rat mGlu3 IC50; for EC50 / IC50: read-out: rat mGlu5 EC50 or IC50; for IC50 / Emax at 30 µM: compound noted as NAM or partial antagonist (PAnt) at mGlu5; for IC50: glutamate EC80; for Emax at 30 µM: response at 30 μM as % of maximal glutamate response, read-out: rat mGlu5 Glu max (%)
Outline: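 Transfected cells grown overnight at 37° C/5% CO2, dye-loaded, then 5 min in assay buffer at RT before Ca2+ flux read on FDSS7000. Fluorescence as F/F0 fold over basal, normalized to maximal glutamate response; EC50 from unconstrained 4-parameter logistic fit, triplicates weighted evenly.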

[2] = molecular target: rat mGlu3 (Rattus norvegicus (Rat), UniProt P31422); assay: mGlu3 Ca2+ flux assay; assay type: cell-based; conditions: for IC50: read-out: rat mGlu3 IC50; for remaining activity at 30 µM: amplitude of response at 30 μM test compound as % of maximal response to glutamate, read-out: rat mGlu3 Glu max (%)
Outline: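 Cells expressing rat mGlu3 were grown overnight at 37° C. under 5% CO2, then loaded with dye. After dye removal they received 20 μL of assay buffer and sat 10 minutes at room temperature. Calcium flux was read on a Hamamatsu FDSS7000, and fluorescence was expressed as fold over basal and normalized to the maximal glutamate response.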

[3] = NAM potency, decrease of glutamate EC80 response, >30,000 = no measurable activity, >10,000 = no plateau

Sequence of rat mGlu3 (P31422 23-879): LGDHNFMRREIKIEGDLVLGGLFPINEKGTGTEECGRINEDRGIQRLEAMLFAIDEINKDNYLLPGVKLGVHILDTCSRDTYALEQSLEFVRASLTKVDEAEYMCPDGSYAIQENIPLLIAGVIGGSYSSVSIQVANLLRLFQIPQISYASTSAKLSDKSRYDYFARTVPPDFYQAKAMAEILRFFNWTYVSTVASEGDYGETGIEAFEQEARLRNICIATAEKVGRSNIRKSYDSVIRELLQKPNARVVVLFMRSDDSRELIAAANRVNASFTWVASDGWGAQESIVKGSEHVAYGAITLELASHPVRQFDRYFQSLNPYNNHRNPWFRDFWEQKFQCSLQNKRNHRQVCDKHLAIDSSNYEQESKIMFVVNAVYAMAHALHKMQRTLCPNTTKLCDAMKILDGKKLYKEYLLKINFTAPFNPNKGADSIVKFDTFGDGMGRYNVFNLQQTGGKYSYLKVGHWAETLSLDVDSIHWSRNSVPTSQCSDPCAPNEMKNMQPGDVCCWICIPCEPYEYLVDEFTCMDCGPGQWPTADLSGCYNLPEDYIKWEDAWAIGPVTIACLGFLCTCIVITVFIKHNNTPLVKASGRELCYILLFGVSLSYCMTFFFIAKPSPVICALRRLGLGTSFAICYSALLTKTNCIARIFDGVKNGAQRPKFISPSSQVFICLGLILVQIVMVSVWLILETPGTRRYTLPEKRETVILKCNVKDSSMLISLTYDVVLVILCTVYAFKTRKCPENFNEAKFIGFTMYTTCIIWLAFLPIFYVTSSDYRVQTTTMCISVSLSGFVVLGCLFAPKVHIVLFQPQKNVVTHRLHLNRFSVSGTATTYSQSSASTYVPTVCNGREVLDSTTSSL
Sequence of rat mGlu5 (P31424 21-1203): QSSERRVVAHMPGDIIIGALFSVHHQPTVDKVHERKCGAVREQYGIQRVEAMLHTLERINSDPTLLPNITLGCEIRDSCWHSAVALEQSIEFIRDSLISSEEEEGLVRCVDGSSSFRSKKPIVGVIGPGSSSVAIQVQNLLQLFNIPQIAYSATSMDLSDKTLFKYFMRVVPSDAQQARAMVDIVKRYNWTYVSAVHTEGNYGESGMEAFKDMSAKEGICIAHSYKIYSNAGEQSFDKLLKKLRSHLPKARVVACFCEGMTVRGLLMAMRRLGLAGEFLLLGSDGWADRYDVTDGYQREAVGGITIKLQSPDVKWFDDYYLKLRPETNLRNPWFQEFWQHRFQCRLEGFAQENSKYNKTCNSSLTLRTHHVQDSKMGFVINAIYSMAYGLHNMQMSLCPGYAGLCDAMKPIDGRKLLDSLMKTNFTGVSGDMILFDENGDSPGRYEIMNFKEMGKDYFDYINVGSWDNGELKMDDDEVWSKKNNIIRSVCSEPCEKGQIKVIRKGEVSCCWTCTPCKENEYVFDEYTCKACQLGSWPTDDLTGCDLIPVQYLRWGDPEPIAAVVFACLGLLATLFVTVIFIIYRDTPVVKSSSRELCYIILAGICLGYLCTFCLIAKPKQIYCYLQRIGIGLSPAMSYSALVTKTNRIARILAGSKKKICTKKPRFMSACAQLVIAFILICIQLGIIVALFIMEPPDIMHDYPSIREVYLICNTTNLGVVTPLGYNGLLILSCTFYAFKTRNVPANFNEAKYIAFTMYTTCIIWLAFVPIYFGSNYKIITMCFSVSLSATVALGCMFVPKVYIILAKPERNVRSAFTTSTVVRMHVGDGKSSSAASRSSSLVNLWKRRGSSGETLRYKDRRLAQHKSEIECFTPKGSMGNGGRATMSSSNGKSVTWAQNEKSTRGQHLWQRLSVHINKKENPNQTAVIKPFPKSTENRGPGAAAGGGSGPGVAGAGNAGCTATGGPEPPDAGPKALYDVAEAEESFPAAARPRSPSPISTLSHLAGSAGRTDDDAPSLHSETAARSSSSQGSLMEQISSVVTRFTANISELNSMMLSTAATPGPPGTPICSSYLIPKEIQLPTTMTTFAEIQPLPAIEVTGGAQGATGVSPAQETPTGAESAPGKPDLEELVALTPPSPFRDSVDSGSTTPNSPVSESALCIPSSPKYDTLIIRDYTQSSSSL

Compound: COc1ccc(N(C)Cc2cc3n(n2)CCN(c2ccc(Cl)cc2F)C3=O)cc1 [Compound 125, 5-(4-chloro-2-fluorophenyl)-2-(((4-methoxyphenyl)(methyl)amino)methyl)-6,7-dihydropyrazolo[1,5-a]pyrazin-4(5H)-one]
Fold selectivity (mGlu3 vs. mGlu5) [1]: >21
EC50 [1]: > 30 µM
IC50 [2, 3]: 1.38 µM
remaining activity at 30 µM [2]: 1.47%

Compound: COc1ccc(N(C)Cc2cc3n(n2)CCN(c2cccc(F)c2Cl)C3=O)cc1 [Compound 126, 5-(2-chloro-3-fluorophenyl)-2-(((4-methoxyphenyl)(methyl)amino)methyl)-6,7-dihydropyrazolo[1,5-a]pyrazin-4(5H)-one]
IC50 [1]: > 10 µM
Emax at 30 µM [1]: 56.8%
Fold selectivity (mGlu3 vs. mGlu5) [1]: >6.2
IC50 [2, 3]: 1.6 µM
remaining activity at 30 µM [2]: 1.5%

Compound: COc1ccc(N(C)Cc2cc3n(n2)CCN(c2cc(Cl)ccc2F)C3=O)cc1 [Compound 127, 5-(5-chloro-2-fluorophenyl)-2-(((4-methoxyphenyl)(methyl)amino)methyl)-6,7-dihydropyrazolo[1,5-a]pyrazin-4(5H)-one]
IC50 [1]: > 10 µM
Emax at 30 µM [1]: 54.6%
Fold selectivity (mGlu3 vs. mGlu5) [1]: >7.9
IC50 [2, 3]: 1.26 µM
remaining activity at 30 µM [2]: 2.32%

Compound: COc1ccc(N(C)Cc2cc3n(n2)CCN(c2c(F)cc(Cl)cc2F)C3=O)cc1 [Compound 128, 5-(4-chloro-2,6-difluorophenyl)-2-(((4-methoxyphenyl)(methyl)amino)methyl)-6,7-dihydropyrazolo[1,5-a]pyrazin-4(5H)-one]
Fold selectivity (mGlu3 vs. mGlu5) [1]: >16
EC50 [1]: > 30 µM
IC50 [2, 3]: 1.86 µM
remaining activity at 30 µM [2]: 1.8%

Compound: COc1ccc(N(C)Cc2cc3n(n2)CCN(c2cc(F)ccc2Cl)C3=O)cc1 [Compound 129, 5-(2-chloro-5-fluorophenyl)-2-(((4-methoxyphenyl)(methyl)amino)methyl)-6,7-dihydropyrazolo[1,5-a]pyrazin-4(5H)-one]
Fold selectivity (mGlu3 vs. mGlu5) [1]: >14
EC50 [1]: > 30 µM
IC50 [2, 3]: 2.02 µM
remaining activity at 30 µM [2]: 2.02%

Compound: COc1ccc(N(C)Cc2cc3n(n2)CCN(c2ccc(F)cc2Cl)C3=O)cc1 [Compound 130, 5-(2-chloro-4-fluorophenyl)-2-(((4-methoxyphenyl)(methyl)amino)methyl)-6,7-dihydropyrazolo[1,5-a]pyrazin-4(5H)-one]
Fold selectivity (mGlu3 vs. mGlu5) [1]: >15
EC50 [1]: > 30 µM
IC50 [2, 3]: 1.95 µM
remaining activity at 30 µM [2]: 2.05%

Fold selectivity (mGlu3 vs. mGlu5) [1]: >21
EC50 [1]: > 30 µM
remaining activity at 30 µM [2]: 1.95%
IC50 [2]: 1.37 µM
Compound: COc1ccc(N(C)Cc2cc3n(n2)CCN(c2cc(F)cc(Cl)c2)C3=O)cc1 [Compound 131, 5-(3-chloro-5-fluorophenyl)-2-(((4-methoxyphenyl)(methyl)amino)methyl)-6,7-dihydropyrazolo[1,5-a]pyrazin-4(5H)-one]

Compound: COc1ccc(N(C)Cc2cc3n(n2)CCN(c2cc(F)cc(OC)c2)C3=O)cc1 [Compound 132, 5-(3-fluoro-5-methoxyphenyl)-2-(((4-methoxyphenyl)(methyl)amino)methyl)-6,7-dihydropyrazolo[1,5-a]pyrazin-4(5H)-one]
Fold selectivity (mGlu3 vs. mGlu5) [1]: >22
EC50 [1]: > 30 µM
IC50 [2, 3]: 1.34 µM
remaining activity at 30 µM [2]: 1.5%

Compound: COc1ccc(N(C)Cc2cc3n(n2)CCN(c2ccc(F)c(Cl)c2)C3=O)cc1 [Compound 133, 5-(3-chloro-4-fluorophenyl)-2-(((4-methoxyphenyl)(methyl)amino)methyl)-6,7-dihydropyrazolo[1,5-a]pyrazin-4(5H)-one]
Fold selectivity (mGlu3 vs. mGlu5) [1]: >24
EC50 [1]: > 30 µM
IC50 [2, 3]: 1.21 µM
remaining activity at 30 µM [2]: 2.13%

Compound: COc1ccc(N(C)Cc2cc3n(n2)CCN(c2cc(Cl)cc(OC)c2)C3=O)cc1 [Compound 134, 5-(3-chloro-5-methoxyphenyl)-2-(((4-methoxyphenyl)(methyl)amino)methyl)-6,7-dihydropyrazolo[1,5-a]pyrazin-4(5H)-one]
Fold selectivity (mGlu3 vs. mGlu5) [1]: >17
EC50 [1]: > 30 µM
IC50 [2, 3]: 1.71 µM
remaining activity at 30 µM [2]: 1.77%

Compound: COc1ccc(N(C)Cc2cc3n(n2)CCN(c2cccc(Cl)c2F)C3=O)cc1 [Compound 135, 5-(3-chloro-2-fluorophenyl)-2-(((4-methoxyphenyl)(methyl)amino)methyl)-6,7-dihydropyrazolo[1,5-a]pyrazin-4(5H)-one]
Fold selectivity (mGlu3 vs. mGlu5) [1]: >24
EC50 [1]: > 30 µM
IC50 [2, 3]: 1.21 µM
remaining activity at 30 µM [2]: 7.26%

Compound: COc1ccc(N(C)Cc2cc3n(n2)CCN(c2ccc(Cl)c(F)c2)C3=O)cc1 [Compound 136, 5-(4-chloro-3-fluorophenyl)-2-(((4-methoxyphenyl)(methyl)amino)methyl)-6,7-dihydropyrazolo[1,5-a]pyrazin-4(5H)-one]
Fold selectivity (mGlu3 vs. mGlu5) [1]: >23
EC50 [1]: > 30 µM
IC50 [2, 3]: 1.27 µM
remaining activity at 30 µM [2]: 2.43%

EC50 [1]: > 30 µM
IC50 [2]: > 30 µM
Compound: Cc1cnc(N2CCn3nc(CNc4ccc(OC(F)F)cc4F)cc3C2=O)s1 [Compound 137, 2-(((4-(difluoromethoxy)-2-fluorophenyl)amino)methyl)-5-(5-methylthiazol-2-yl)-6,7-dihydropyrazolo[1,5-a]pyrazin-4(5H)-one]

Fold selectivity (mGlu3 vs. mGlu5) [1]: >36
EC50 [1]: > 30 µM
remaining activity at 30 µM [2]: 2.05%
IC50 [2]: 0.821 µM
Compound: O=C1c2cc(CNc3ccc(OC(F)F)cc3F)nn2CCN1c1cccc(F)n1 [Compound 138, 2-(((4-(difluoromethoxy)-2-fluorophenyl)amino)methyl)-5-(6-fluoropyridin-2-yl)-6,7-dihydropyrazolo[1,5-a]pyrazin-4(5H)-one]

Compound: O=C1c2cc(CNc3ccc(OC(F)F)cc3F)nn2CCN1c1cc(Cl)ccn1 [Compound 139, 5-(4-chloropyridin-2-yl)-2-(((4-(difluoromethoxy)-2-fluorophenyl)amino)methyl)-6,7-dihydropyrazolo[1,5-a]pyrazin-4(5H)-one]
Fold selectivity (mGlu3 vs. mGlu5) [1]: >17
EC50 [1]: > 30 µM
IC50 [2, 3]: 1.76 µM
remaining activity at 30 µM [2]: 2.59%

Compound: Cc1nc(N2CCn3nc(CNc4ccc(OC(F)F)cc4F)cc3C2=O)cs1 [Compound 140, 2-(((4-(difluoromethoxy)-2-fluorophenyl)amino)methyl)-5-(2-methylthiazol-4-yl)-6,7-dihydropyrazolo[1,5-a]pyrazin-4(5H)-one]
Fold selectivity (mGlu3 vs. mGlu5) [1]: >48
EC50 [1]: > 30 µM
IC50 [2, 3]: 0.624 µM
remaining activity at 30 µM [2]: 2.43%

Compound: O=C1c2cc(CNc3ccc(OC(F)F)cc3F)nn2CCN1c1ccc(F)cc1F [Compound 141, 2-(((4-(difluoromethoxy)-2-fluorophenyl)amino)methyl)-5-(2,4-difluorophenyl)-6,7-dihydropyrazolo[1,5-a]pyrazin-4(5H)-one]
Fold selectivity (mGlu3 vs. mGlu5) [1]: >42
EC50 [1]: > 30 µM
IC50 [2, 3]: 0.706 µM
remaining activity at 30 µM [2]: 1.87%

Compound: COc1cccc(N2CCn3nc(CNc4ccc(OC(F)F)cc4F)cc3C2=O)c1 [Compound 142, 2-(((4-(difluoromethoxy)-2-fluorophenyl)amino)methyl)-5-(3-methoxyphenyl)-6,7-dihydropyrazolo[1,5-a]pyrazin-4(5H)-one]
Fold selectivity (mGlu3 vs. mGlu5) [1]: >34
EC50 [1]: > 30 µM
IC50 [2, 3]: 0.863 µM
remaining activity at 30 µM [2]: 1.5%

Compound: O=C1c2cc(CNc3ccc(OC(F)F)cc3F)nn2CCN1c1ncccc1F [Compound 143, 2-(((4-(difluoromethoxy)-2-fluorophenyl)amino)methyl)-5-(3-fluoropyridin-2-yl)-6,7-dihydropyrazolo[1,5-a]pyrazin-4(5H)-one]
Fold selectivity (mGlu3 vs. mGlu5) [1]: >31
EC50 [1]: > 30 µM
IC50 [2, 3]: 0.95 µM
remaining activity at 30 µM [2]: 1.31%

Compound: Cc1ccc(N2CCn3nc(CNc4ccc(OC(F)F)cc4F)cc3C2=O)nc1 [Compound 144, 2-(((4-(difluoromethoxy)-2-fluorophenyl)amino)methyl)-5-(5-methylpyridin-2-yl)-6,7-dihydropyrazolo[1,5-a]pyrazin-4(5H)-one]
Fold selectivity (mGlu3 vs. mGlu5) [1]: >17
EC50 [1]: > 30 µM
IC50 [2, 3]: 1.74 µM
remaining activity at 30 µM [2]: 5.68%

Compound: O=C1c2cc(CNc3ccc(OC(F)F)cc3F)nn2CCN1c1ccc(F)c(F)c1 [Compound 145, 2-(((4-(difluoromethoxy)-2-fluorophenyl)amino)methyl)-5-(3,4-difluorophenyl)-6,7-dihydropyrazolo[1,5-a]pyrazin-4(5H)-one]
Fold selectivity (mGlu3 vs. mGlu5) [1]: >37
EC50 [1]: > 30 µM
IC50 [2, 3]: 0.8 µM
remaining activity at 30 µM [2]: 2.55%

Compound: O=C1c2cc(CNc3ccc(OC(F)F)cc3F)nn2CCN1c1ccc(F)cn1 [Compound 146, 2-(((4-(difluoromethoxy)-2-fluorophenyl)amino)methyl)-5-(5-fluoropyridin-2-yl)-6,7-dihydropyrazolo[1,5-a]pyrazin-4(5H)-one]
Fold selectivity (mGlu3 vs. mGlu5) [1]: >51
EC50 [1]: > 30 µM
IC50 [2, 3]: 0.578 µM
remaining activity at 30 µM [2]: 2.03%

Compound: COc1cc(F)cc(N2CCn3nc(CNc4ccc(OC(F)F)cc4F)cc3C2=O)c1 [Compound 147, 2-(((4-(difluoromethoxy)-2-fluorophenyl)amino)methyl)-5-(3-fluoro-5-methoxyphenyl)-6,7-dihydropyrazolo[1,5-a]pyrazin-4(5H)-one]
Fold selectivity (mGlu3 vs. mGlu5) [1]: >23
EC50 [1]: > 30 µM
IC50 [2, 3]: 1.26 µM
remaining activity at 30 µM [2]: 1.67%
